# Assay results as given in patent publication US8382729B2, “Adhesive patch” (Hisamitsu Pharmaceutical Co., Inc., priority 2008, dated 2013).
# Test: Measurement of plasma concentration after patch application
# Assay type: in vivo, human
# Conditions: for AUC(0-t) / Cmax: male, human, in vivo
# Protocol: The blood was collected at each of 0, 0.5, 1, 2, 3, 4, 6, 8, 10, 12, 18, and 24 hours from the start of the application, and the amount of blood collected each time was 7 mL.
# The plasma concentrations of the methyl salicylate, its metabolite salicylic acid, and the 1-menthol were each measured. The measurement was performed by liquid chromatography-mass spectrometry for the salicylic acid and by gas chromatography-mass spectrometry for the methyl salicylate and the 1-menthol. Each of the measurement methods was validated beforehand to confirm measurement reliability. Incidentally, values obtained by subtracting an endogenous concentration before the application (measurement value on 0 hour from the start of the application) from an actual measurement value were used as plasma concentrations during the application. The Cmax and AUC0-24 were calculated according to the changes in the measurement values of these plasma concentrations over time.
# Changes in the plasma concentrations of the salicylic acid, the methyl salicylate, and the 1-menthol over time are shown in FIG. 4 to FIG. 6. In addition, the pharmacokinetic parameters (mean, maximum value, and minimum value of Cmax and AUC0-24) of each of the drugs are shown in Table 6. Incidentally, a mean in the figure was an average value from the seven human subjects and represented using a standard deviation (SD). This measurement of the plasma concentrations was performed according to the guideline of FDA (U.S. Food and Drug Administration) (Gaidance for Industry=Bioanalytical Method Validation).
# [1] = plasma, 280 cm^2 adhesive patch of Example 1 (methyl salicylate 336 mg, l-menthol 100 mg) applied 8 hours, seven healthy males, baseline-subtracted
# [2] = plasma, 280 cm^2 adhesive patch of Example 1 applied 8 hours, seven healthy males
"AUC(0-t) (AUC0-24, Maximum Value) [ng·h/mL]","AUC(0-t) (AUC0-24, Minimum Value) [ng·h/mL]",Cmax (Maximum Value) [ng/mL],Cmax (Minimum Value) [ng/mL],SMILES,"AUC0-24, Mean ± SD [1] [ng·h/mL]","Cmax, Mean ± SD [1] [ng/mL]","AUC0-24, Maximum Value [2] [ng·h/mL]","AUC0-24, Minimum Value [2] [ng·h/mL]","Cmax, Maximum Value [2] [ng/mL]","Cmax, Minimum Value [2] [ng/mL]"
50,8.1,33,3.5,COC(=O)c1ccccc1O [Methyl Salicylate],,,,,,
,,,,CC(C)[C@@H]1CC[C@@H](C)C[C@H]1O [l-Menthol],53.6 ± 33.4,10.7 ± 6.4,109,15.4,22.5,4.5
11800,3950,1770,705,O=C(O)c1ccccc1O [Salicylic Acid],,,,,,
